Assay results reported in US20230190851A1, “PLANT COMPOUNDS FOR TREATING ALZHEIMER'S DISEASE” (RRW B.V., priority 2020, published 2023).

System: C. elegans nematode strain with inducible amyloid-β accumulation (CL4176)
Test: Alzheimer's disease paralysis assay, C. elegans strain with inducible amyloid-β accumulation
Type: in vivo
Details: strain CL4176, heat shock 25° C., counted approximately every 24 h; combination effect after 71 h, persisted for 95 h
Text: These strains accumulate amyloid-β peptides that form plaques in the nematodes and lead to paralysis of the animals. In certain strains, such as strain CL4176, Aβ accumulation occurs only in response to heat shock. Thus, the Alzheimer's disease pattern is inducible in these strains. The number of paralyzed nematodes after a certain period of time following induction of Aβ accumulation indicates the extent of Alzheimer's disease. Thus, the effect of certain substances to which the nematodes are exposed on the number of paralyzed animals is a measure of the anti-Alzheimer effect of these substances.
Nematodes of strain CL4176 were synchronized at the young larval stage and allowed to grow to the L4 stage on normal growth medium for 72 h at 16° C. Then the nematodes were exposed to the test substance and the temperature was increased to 25° C. This heat shock induced Aβ accumulation, simulating the onset of Alzheimer's disease. Approximately every 24 h, the number of animals that were still mobile and those that were paralyzed as a result of Aβ accumulation was determined.

For `C=C(C)[C@@H]1CCC(C)=C[C@H]1c1c(O)cc(CCCCC)cc1O` [CBD, cannabidiol], the “number of mobile / paralyzed animals after induction of Aβ accumulation” value was “only little effect”.
